Results: PubChem BioAssay (NCI)
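All cell lines were grown in 96-well plates and treated with compound for 48 hours. GI50 = concentration required for 50% inhibition of growth. TGI: concentration producing complete growth inhibition.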

Assays:
Test in all cases: NCI tumour cell line growth inhibition, 48 h
SNB-75 CNS = test system: SNB-75 CNS
SW-620 colon = test system: SW-620 colon
HCT-116 colon = test system: HCT-116 colon
K-562 leukemia = test system: K-562 leukemia
NCI/ADR-RES ovarian = test system: NCI/ADR-RES ovarian
HCC-2998 colon = test system: HCC-2998 colon
SK-MEL-2 melanoma = test system: SK-MEL-2 melanoma
MDA-MB-435 = test system: MDA-MB-435
T-47D breast = test system: T-47D breast
MDA-MB-231 breast = test system: MDA-MB-231 breast

Structure (SMILES)	TGI (SNB-75 CNS) [µM]	TGI (SW-620 colon) [µM]	TGI (HCT-116 colon) [µM]	TGI (K-562 leukemia) [µM]	TGI (NCI/ADR-RES ovarian) [µM]	TGI (HCC-2998 colon) [µM]	TGI (SK-MEL-2 melanoma) [µM]	TGI (MDA-MB-435) [µM]	TGI (T-47D breast) [µM]	TGI (MDA-MB-231 breast) [µM]	GI50 (SNB-75 CNS) [µM]	GI50 (MDA-MB-435) [µM]	GI50 (SW-620 colon) [µM]	GI50 (MDA-MB-231 breast) [µM]	GI50 (K-562 leukemia) [µM]	GI50 (NCI/ADR-RES ovarian) [µM]	GI50 (HCC-2998 colon) [µM]	GI50 (T-47D breast) [µM]	GI50 (SK-MEL-2 melanoma) [µM]	GI50 (HCT-116 colon) [µM]
CCS(=O)(=O)Nc1ccc(Nc2c3ccccc3nc3ccccc23)c(OC)c1	3.01	7.13	6.94	14.6	20.6	9.3	18.8													
N=c1c2c(C(N)=O)cn(C3OC(CO)C(O)C3O)c2ncn1O (stereo not given)	4.85	0.497	0.596		0.447		2.33	0.74	3.69											
Cc1cccc2nc3c(C(=O)NCCN(C)C)cccc3cc12	6.75	4.49	6.21	8.22	6.23	5.36	3.46													
CCSCCC(N)C(=O)O (stereo not given)	> 100	> 100	> 100	> 100	> 100	> 100	> 100	> 100	> 100	> 100										
Cc1nc(N)nc(N)c1-c1ccc(Cl)c(Cl)c1	> 76.4	> 100	> 100	> 100	> 100	> 50.6	> 90.6	> 100	> 100	> 100										
COC(=O)C1=CC2CCCC1(O)C(C(C)=O)C2 (stereo not given)	> 31.6	> 100	> 100	> 100	> 100	> 100	> 100	> 100	> 100	> 100										
CCOC(=O)C1(C(=O)OCC)Nc2cccnc2N(C)N1	> 100	69	73.9	49.9	43.8		37	36	53.5	40.4										
O=S(=O)(O)c1ccc2cccc(N=Nc3c(O)ccc4ccccc34)c2c1	> 100	> 100	> 100	> 100	> 100	> 100	> 100	> 100	> 100	> 100										
COc1ccc(/C(=C2/O[C@@H]([C@H]3COC(C)(C)O3)[C@H]3OC(C)(C)O[C@@H]23)c2cc(OC)c(OC)c(OC)c2)cc1O	> 100	> 100		> 100	8.85	80.4	8.44	5.54	> 100	50.1	6.36	2.15	7.28	9.71	6.28	3.11	31.1	44.3	3.26	
CC1CNc2ccccc2N=C1NN (stereo not given)		> 100	> 100	> 100	> 100	> 100	> 100	> 100	> 100	> 100										
CC1SC(c2ccccc2)N(CCc2cccs2)C1=O (stereo not given)	17.8	18.3	12.3	> 100	21.1	16.4	14.7	16.7	18.7	16.1	3.01	3.63	4.6	3.3	3.94	3.12	4.4	2.16	3.42	2.99
COc1ccc(/C=C2\C(=O)N(C3OC(COC(C)=O)C(OC(C)=O)C(OC(C)=O)C3OC(C)=O)c3ccccc3N=C2N)cc1 (stereo not given)	54	> 100	49.7	38.1	83.9	54.4	66.9	35.7	40.8	> 100										
CCOC(=O)c1nc2ccc(Cl)cc2c2c1Cc1ccccc1-2	> 100	> 100	> 100	> 100		> 100	> 100													
O=C(N/N=C(/c1ccccc1)C(F)(F)F)c1ccncc1	> 100		> 100	> 100	> 100	> 100	> 100	> 100	> 100											
CN1CC[C@@]2(c3cccc(O)c3)CC(=O)/C(=C/c3ccccc3)[C@H]1C2	7.09	10.1	12.5	6.52	24.5	25	87.2	13.9		23.6										
CCN(CC)CC(C)Nc1ccc([N+](=O)[O-])c2sc3ccccc3c(=O)c12 (stereo not given)	17.2	4.13	4.49	3.74	> 58.5	11.9	5.04	8.33	13.2	9.09	3.64	2.15	1.25	2.16	1.46	2.65	2.21	2.05	1.94	1.41
COc1ccc2nc(N/N=C/C(C)=N/Nc3cc(C)c4cc(OC)ccc4n3)cc(C)c2c1	47.7	43.5	28.6	9.81	46.1	47.1	> 82.1	62.1	> 73.6	36.7										
